Laboratory results as given in PMC10813298, “Evidence of Guanidines Potential against Leishmania (Viannia) braziliensis: Exploring In Vitro Effectiveness, Toxicities and of Innate Immunity Response Effects” (Biomolecules, 2023).

Tests used:
LmCPB2.8ΔCTE = tested on: LmCPB2.8ΔCTE; design: method as in PMID 36551331; details: previous findings; cited from earlier work
aorta = assay: Vasodilator effect on aortic rings (KCl contraction); details: Cavia porcellus; guinea pig aortic rings
Procedure: (§1) Guinea pigs of either sex weighing between 250 or 380 g were utilized in this study. The animals were housed in a controlled environment in an air-conditioned room, maintaining a temperature of 22 to 24 °C and a relative humidity of 50% to 60%. A 12 h light–dark cycle was maintained.
(§2) On the day of the experiments, the animals were euthanized via cervical dislocation. The heart, aorta, pulmonary artery, and ileum were surgically removed and immersed in Krebs–Henseleit solution, with the following composition: NaCl 144.9 mM, KCl 4.73 mM, CaCl2 3.2 mM, MgSO4 1.18 mM, NaHCO3 24.9 mM, KH2PO4 1.18 mM, and glucose 10 mM, with the pH maintained at 7.2–7.4. This solution was continuously aerated with a mixture of 95% O2 and 5% CO2.
Papillary muscles were isolated from the right ventricle of the heart and meticulously cleared of Purkinje fibers to prevent spontaneous activity. To ensure adequate oxygen supply, only muscles with a diameter less than 0.87 mm were used. The right atrium was also dissected for assessment of chronotropic activity. […]
(§3) Following a 30 min control period, different concentrations of test compounds were cumulatively added to the bath solution every 45 min until a stable effect was achieved. The responses were recorded using a chart recorder (BD 112 Dual Channel, Kipp &Zonen, PO Box 507, 2624 BC, Delft, Holland) for subsequent evaluation. […]

[1] = tested on: Leishmania (Leishmania) amazonensis; design: method as in PMID 36551331; details: BALB/c-L. (L.) amazonensis, 0.13 mg/kg/day; cited from earlier work
pulmonary artery = assay: Vasodilator effect on pulmonary artery rings (KCl contraction); details: guinea pig pulmonary artery rings
Procedure: as §1, §2
Papillary muscles were isolated from the right ventricle of the heart and meticulously cleared of Purkinje fibers to prevent spontaneous activity. To ensure adequate oxygen supply, only muscles with a diameter less than 0.87 mm were used. The right atrium was also dissected for assessment of chronotropic activity. Both the aorta and pulmonary artery were cleaned and cut into 5 mm rings, while the ileum was sectioned into pieces measuring 1 to 2 cm.
One end of the dissected tissues was securely tied with silver wire for attachment to a tissue holder, while the other end was connected to a force transducer (Transbridge™, 4-Channel Transducer Amplifier, World Precision Instruments, Sarasota, FL, USA). For contractile measurements, the terminal ileum was stimulated with 60 mM KCl, and the pulmonary artery and aorta rings were exposed to a 90 mM KCl solution. […]
as §3

IL-10 = assay: Cytokine production in supernatant of infected macrophages (ELISA), IL-10; type: cell-based, murine; details: supernatant of RAW 264.7 macrophages infected with L. (V.) braziliensis
From the text: (§4) To assess the production of cytokines TNF-α and IL-12 (associated with Th1 response), as well as IL-10 and IL-6 (associated with Th2 response), in the supernatants of the macrophage infection assay, the sandwich enzyme-linked immunosorbent assay (ELISA) method was employed, following the manufacturer’s instructions (eBioscience^TM, San Diego, CA, USA). Initially, capture antibodies specific to TNF-α, IL-6, IL-10, and IL-12 were sensitized in ELISA plates (NUNC-ImmunoTM, Sigma-Aldrich, St. Louis, MO, USA). The plates were incubated at 4 °C for 18 h. After the incubation period, all wells were washed with a solution containing 0.05% PBS and Tween 20 (Sigma-Aldrich, St. Louis, MO, USA). A blocking solution containing 10% FBS in PBS was added to the wells and incubated for 1 h. Subsequently, the wells were washed again. The supernatant obtained from the macrophage infection assay was added to the respective wells. Known concentrations of recombinant cytokines (TNF-α, IL-10, IL-6, and IL-12) were also added to the plate in parallel, covering a range from high to low concentrations. The plates were maintained at 4 °C for another 18 h. […] The absorbance was measured in a plate reader at a wavelength of 450 nm. The concentration of cytokines (TNF-α, IL-10, IL-6, and IL-12) in the supernatants was determined by interpolation from the standard curve.

IL-12 = assay: Cytokine production in supernatant of infected macrophages (ELISA), IL-12; type: cell-based, murine; details: supernatant of RAW 264.7 macrophages infected with L. (V.) braziliensis
From the text: as §4

In the case of `CC(C)(C)c1ccc(N/C(=N\C(=O)c2ccccc2)NCc2ccccc2)cc1` [LQOF-G6, (Z)-N-benzoyl-N-benzyl-N-(4-tert-butylphenyl)guanidine], the “inhibition of the enzyme LmCPB2.8ΔCTE” value (LmCPB2.8ΔCTE) is listed as 73%.
For `O=C(/N=C(/NCc1ccccc1)Nc1ccc(Br)cc1)c1ccccc1` [LQOF-G2, (Z)-N-benzoyl-N-benzyl-N-(4-bromophenyl)guanidine], the EC50 (aorta) is listed as 16 µM, the “reduction in the parasite load” value [1] is listed as 46% and the EC50 (pulmonary artery; Cavia porcellus) is listed as 48 µM. The “arteria pulmonalis ring contraction force” value (pulmonary artery) was “decrease” and the IL-10 level (IL-10) was “decreased”.
With `O=C(/N=C(/NCc1ccccc1)Nc1ccc([N+](=O)[O-])cc1)c1ccccc1` [LQOF-G1, (Z)-N-benzoyl-N-benzyl-N-(4-nitrophenyl)guanidine] the IL-10 level (IL-10) was “decreased” and the IL-12 level (IL-12) was “increased”.
